Square brackets hold non-standard residues; d marks the D form. Peptide text beside a SMILES is read from it. * marks the point of attachment. X1 = CN1/C(=C/C=C/C=C/C2=[N+](CCCCCC(=O)*)c3ccc(S(=O)(=O)[O-])cc3C2(C)C)C(C)(C)c2cc(S(=O)(=O)O)ccc21; Hyp = O=C(O)[C@@H]1C[C@@H](O)CN1; Nlys = NCCCCNCC(=O)O; Ahx = NCCCCCC(=O)O
What was measured:
[1] = In vitro cartilage uptake (absorption); details: after 30 min; 10 mg porcine cartilage slice, 10 µM in 200 µL 1× PBS, room temperature, fluorescence, n = 6
Procedure: Porcine cartilage was freshly harvested from the articular cartilage of an adult pig's knee joint obtained from a local slaughterhouse. Porcine cartilage plugs (diameter: 6 mm) were excised using an osteotomy drill with constant rinsing with PBS buffer for cooling. All solutions in the experiments with unfixed porcine cartilage samples (e.g., Figure 2d–f; Figures S5 and S6, Supporting Information) contained 100 U mL^−1 penicillin and 0.1 mg mL^−1 streptomycin (Solarbio, P1400) to prevent bacterial growth.
The porcine cartilage plugs were carefully cut into small cuboids with a uniform size (≈5 × 1 × 2 mm, ≈10 mg by wet weight). […] Each incubation bath was aliquoted so its fluorescence FN1 of the incubation bath was measured without the cartilage samples using a microplate reader (PerkinElmer EnVision; excitation: 646 nm, emission: 662 nm) at specified time points (N1 = 0.5, 1, 2, 4, 6, 8, 10, 12, and 24 h) to estimate the absorption of the probes (Figure 2d; Figure S5, Supporting Information), while fluorescence levels of the compound solutions pre‐measured before incubation were recorded as Fpre. The unabsorbed percent was calculated as FN1/Fpre×100%, and the final fluorescence measurement after 24 h of absorption was recorded as F24h. […]

[2] = Blood biochemical analysis; format: in vivo, mouse; details: C57BL/6J mice, 24 h post i.v. injection of 2 nmol, n = 5
Procedure: Blood biochemical analysis: Each C57BL/6J mouse (6–8 weeks old) was intravenously injected with 100 µL of PBS or Cy5‐(NlysO)7 (2 nmol in 100 µL 1× PBS buffer per mouse) 24 h prior to blood collection for the biochemical analysis. Biochemical analysis of the blood was performed by Wuhan Servicebio.

vitreous bodies and skin = assay: In vivo uptake in vitreous bodies and skin; details: mouse, 2 h post i.v. injection of 2 nmol
Procedure: Typically, the fluorescence peptides or peptoids were prepared at a dose of 1 nmol (10 µM in 100 µL of 1× PBS buffer) and injected into the tail vein of each mouse 2 h prior to fluorescence imaging with an IVIS Spectrum imager (PerkinElmer Lumina III). For Figure 4, Figures S17 and S18 (Supporting Information) (joint aging and RA) and Figure S27 (Supporting Information), 2 nmol of Cy5‐(NlysO)7 (20 µM in 100 µL of 1× PBS buffer) were i.v. administered to each mouse. For 1‐week‐old neonatal mice, 1 nmol of Cy5‐(NlysO)7 (20 µM in 50 µL of 1× PBS buffer) was intravenously injected into each mouse. All in vivo imaging was performed 2 h post probe injection with the IVIS Spectrum imager (PerkinElmer, fluorescence: ex/em: 620/670 nm, exposure: 1 s, bing: 4, F/Stop: 2; field of view: A/B/C/Z). Mice were anesthesia with 3% isoflurane (RWD, R510‐22‐10) during image acquisition. Hair in the knee areas was removed before fluorescence imaging for mice in Figure 4a and Figure S17 (Supporting Information). The mice were euthanized following the final image acquisition and occasionally imaged again after skin and organ removal. […] All acquired fluorescence images were analyzed using the Living Image software (PerkinElmer). The fluorescence signal from each specimen was measured by quantifying the average radiation efficiency within the selected oval‐shaped regions‐of‐interest.

[3] = Organ fluorescence 2 h post-injection (clearance route); format: in vivo, mouse; details: nude mice, organs isolated 2 h post i.v. injection of 1 nmol
Procedure: Typically, the fluorescence peptides or peptoids were prepared at a dose of 1 nmol (10 µM in 100 µL of 1× PBS buffer) and injected into the tail vein of each mouse 2 h prior to fluorescence imaging with an IVIS Spectrum imager (PerkinElmer Lumina III). For Figure 4, Figures S17 and S18 (Supporting Information) (joint aging and RA) and Figure S27 (Supporting Information), 2 nmol of Cy5‐(NlysO)7 (20 µM in 100 µL of 1× PBS buffer) were i.v. administered to each mouse. For 1‐week‐old neonatal mice, 1 nmol of Cy5‐(NlysO)7 (20 µM in 50 µL of 1× PBS buffer) was intravenously injected into each mouse. All in vivo imaging was performed 2 h post probe injection with the IVIS Spectrum imager (PerkinElmer, fluorescence: ex/em: 620/670 nm, exposure: 1 s, bing: 4, F/Stop: 2; field of view: A/B/C/Z). Mice were anesthesia with 3% isoflurane (RWD, R510‐22‐10) during image acquisition. Hair in the knee areas was removed before fluorescence imaging for mice in Figure 4a and Figure S17 (Supporting Information). The mice were euthanized following the final image acquisition and occasionally imaged again after skin and organ removal. Next, the airways, ankles, ears, paws, knees, tails, spines, and chest ribs were collected, imaged, and saved for subsequent histology analysis. All acquired fluorescence images were analyzed using the Living Image software (PerkinElmer). The fluorescence signal from each specimen was measured by quantifying the average radiation efficiency within the selected oval‐shaped regions‐of‐interest.

[4] = Routine (whole) blood tests after repeated dosing; format: in vivo, mouse; details: C57BL/6J mice, 3 weekly i.v. doses of 2 nmol over 14 days, n = 5
Procedure: Whole blood tests: Each C57BL/6J mouse (6–8 weeks old) was intravenously injected with 100 µL of PBS buffer or with each peptide or peptoid probe (2 nmol in 100 µL 1× PBS buffer per mouse) on days 0, 7, and 14. The mice were sacrificed on day 15, 24 h after the final injection. The heart, liver, spleen, lungs, and kidneys were collected from each mouse and processed into formalin‐fixed paraffin‐embedded sections for histological evaluation with H&E staining. Whole blood was collected. Both H&E and blood sample analyses were performed by Wuhan Servicebio.

| Compound | unabsorbed percent of starting concentration remaining in solution [1] | blood biochemical analytes (ALT, AST, TBIL, UREA, BUN, CREA) vs PBS group [2] | in vivo fluorescence uptake in vitreous bodies and skin compared to cartilage (vitreous bodies and skin) | clearance route from organ fluorescence [3] | routine blood analyses vs PBS control group [4] |
| --- | --- | --- | --- | --- | --- |
| CN1/C(=C/C=C/C=C/C2=[N+](CCCCCC(=O)NCCCCCC(=O)N[C@@H](CCCNC(=N)N)C(=O)N[C@@H](CCCNC(=N)N)C(=O)N[C@@H](CCCNC(=N)N)C(=O)N[C@@H](CCCNC(=N)N)C(=O)N[C@@H](CCCNC(=N)N)C(=O)N[C@@H](CCCNC(=N)N)C(=O)N[C@@H](CCCNC(=N)N)C(=O)N[C@@H](CCCNC(=N)N)C(N)=O)c3ccc(S(=O)(=O)[O-])cc3C2(C)C)C(C)(C)c2cc(S(=O)(=O)O)ccc21 [Cy5‐R8, reference compound] | ≈ 20% | – | – | – | – |
| CN1/C(=C/C=C/C=C/C2=[N+](CCCCCC(=O)NCCCCCC(=O)N(CCCCN)CC(=O)N3C[C@H](O)C[C@H]3C(=O)N(CCCCN)CC(=O)N3C[C@H](O)C[C@H]3C(=O)N(CCCCN)CC(=O)N3C[C@H](O)C[C@H]3C(=O)N(CCCCN)CC(=O)N3C[C@H](O)C[C@H]3C(=O)N(CCCCN)CC(=O)N3C[C@H](O)C[C@H]3C(=O)N(CCCCN)CC(=O)N3C[C@H](O)C[C@H]3C(=O)N(CCCCN)CC(=O)N3C[C@H](O)C[C@H]3C(N)=O)c3ccc(S(=O)(=O)[O-])cc3C2(C)C)C(C)(C)c2cc(S(=O)(=O)O)ccc21 [Cy5‐(NlysO)7] ({X1-Ahx}-[Nlys][Hyp][Nlys][Hyp][Nlys][Hyp][Nlys][Hyp][Nlys][Hyp][Nlys][Hyp][Nlys][Hyp]-NH2) | – | no key analytes from the Cy5‐(NlysO)7 group significantly differed | virtually no in vivo fluorescence uptake | might be mainly cleared through kidneys | None of the measurements |
